We go through 15 molecules from ChEMBL document CHEMBL2016507, “Prospective acetylcholinesterase inhibitory activity of indole and its analogs” (Bioorg Med Chem Lett, 2012).

Test [1] deals with T1, Acetylcholinesterase (Homo sapiens, UniProt P22303). Nature of the test: Inhibition of AChE by Ellman's method.
Test [2] addresses Acetylcholinesterase (Electrophorus electricus) (UniProt O42275). Nature of the test: Inhibition of electric eel AChE using acetylcholine iodide as substrate at 6.2 X 10^-4 M measured every 5 sec for 2 mins by Ellman's method. For orientation: Ellman's reagent forms a yellow product with free thiols.
Test [3] concerns the target Acetylcholinesterase (Electrophorus electricus, UniProt O42275). Nature of the test: Inhibition of electric eel AChE using acetylcholine iodide as substrate measured every 5 sec for 2 mins by Ellman's method.
Test [4] concerns the target T1, Acetylcholinesterase. Nature of the test: Inhibition of human AChE by Ellman's method.

Sequence of Acetylcholinesterase (Electrophorus electricus, UniProt O42275) (O42275 whole entry): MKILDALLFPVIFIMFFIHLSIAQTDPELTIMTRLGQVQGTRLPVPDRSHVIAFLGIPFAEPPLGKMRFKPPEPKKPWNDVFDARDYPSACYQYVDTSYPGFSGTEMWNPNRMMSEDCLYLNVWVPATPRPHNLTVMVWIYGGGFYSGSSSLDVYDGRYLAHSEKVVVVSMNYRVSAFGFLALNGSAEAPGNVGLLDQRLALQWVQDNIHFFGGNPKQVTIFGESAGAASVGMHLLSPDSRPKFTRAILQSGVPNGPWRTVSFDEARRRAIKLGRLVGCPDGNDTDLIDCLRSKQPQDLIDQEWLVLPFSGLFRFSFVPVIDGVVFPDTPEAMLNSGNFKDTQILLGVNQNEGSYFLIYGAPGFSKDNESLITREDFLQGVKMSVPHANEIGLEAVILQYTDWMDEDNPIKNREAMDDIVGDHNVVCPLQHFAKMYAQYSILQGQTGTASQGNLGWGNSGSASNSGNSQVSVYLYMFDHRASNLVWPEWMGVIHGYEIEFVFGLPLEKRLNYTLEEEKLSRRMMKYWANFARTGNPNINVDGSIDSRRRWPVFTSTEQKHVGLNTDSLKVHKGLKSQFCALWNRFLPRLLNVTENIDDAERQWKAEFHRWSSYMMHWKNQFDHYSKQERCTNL
Sequence of Acetylcholinesterase (Electrophorus electricus) (O42275 24-633 limits assumed): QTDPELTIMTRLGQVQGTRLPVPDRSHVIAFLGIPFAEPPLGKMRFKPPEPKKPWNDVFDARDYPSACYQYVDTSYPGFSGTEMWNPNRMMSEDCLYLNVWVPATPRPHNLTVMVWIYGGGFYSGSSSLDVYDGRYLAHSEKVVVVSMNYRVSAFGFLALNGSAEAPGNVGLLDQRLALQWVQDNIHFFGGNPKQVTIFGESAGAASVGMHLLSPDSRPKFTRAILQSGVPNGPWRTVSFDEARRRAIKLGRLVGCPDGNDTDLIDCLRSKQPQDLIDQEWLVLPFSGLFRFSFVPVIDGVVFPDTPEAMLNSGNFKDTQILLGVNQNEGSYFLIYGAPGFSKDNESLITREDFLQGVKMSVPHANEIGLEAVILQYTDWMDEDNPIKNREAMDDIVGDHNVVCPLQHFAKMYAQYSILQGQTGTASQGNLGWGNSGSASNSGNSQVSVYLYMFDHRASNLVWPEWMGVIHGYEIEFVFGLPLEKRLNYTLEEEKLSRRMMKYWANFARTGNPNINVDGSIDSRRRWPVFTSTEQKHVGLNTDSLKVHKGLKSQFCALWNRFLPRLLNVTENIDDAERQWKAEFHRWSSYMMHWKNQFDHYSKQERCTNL
T1 sequence (P22303 whole entry): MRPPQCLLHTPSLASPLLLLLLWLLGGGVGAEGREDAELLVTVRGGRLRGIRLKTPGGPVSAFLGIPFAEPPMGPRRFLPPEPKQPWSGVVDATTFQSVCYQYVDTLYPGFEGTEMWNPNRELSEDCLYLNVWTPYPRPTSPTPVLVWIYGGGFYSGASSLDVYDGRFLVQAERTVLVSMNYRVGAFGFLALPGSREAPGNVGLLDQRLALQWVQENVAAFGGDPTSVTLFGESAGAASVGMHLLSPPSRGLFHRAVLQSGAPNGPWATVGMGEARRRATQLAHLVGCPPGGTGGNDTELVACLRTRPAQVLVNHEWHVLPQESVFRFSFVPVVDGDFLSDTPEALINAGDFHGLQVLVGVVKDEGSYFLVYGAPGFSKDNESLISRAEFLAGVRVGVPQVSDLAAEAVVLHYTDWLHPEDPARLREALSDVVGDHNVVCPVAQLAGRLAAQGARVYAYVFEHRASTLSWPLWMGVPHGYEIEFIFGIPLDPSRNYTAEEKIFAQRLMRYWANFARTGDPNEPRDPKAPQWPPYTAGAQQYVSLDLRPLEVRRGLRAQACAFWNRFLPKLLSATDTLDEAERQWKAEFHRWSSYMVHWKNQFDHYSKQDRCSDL

As a reminder, the IC50 is the concentration needed to halve the response being measured. Low readings indicate inhibition by little substance, high ones a need for much substance. At Acetylcholinesterase [1], `CC[C@H]1C[C@@H]2CN3CCc4c([nH]c5cc([C@H]6C[C@H]7C(C(=O)OC)[C@H](Cc8c6[nH]c6ccccc86)N(C)C[C@H]7CC)ccc45)[C@](C(=O)OC)(C2)[C@H]13` (stereo partly drawn) showed a half-inhibitory concentration (IC50) of 0.071 µM. For orientation: inhibition means the percentage by which the read-out fell short of the control. In test [2], `O=C(O)c1ccc2[nH]ccc2c1` displayed an inhibition of 29.1%.

Turning to `COc1ccc2c(ccc[n+]2Cc2ccccc2)c1`, the IC50 on Acetylcholinesterase [3] came to 2.46 µM; against Acetylcholinesterase [4], 5.29 µM. `Cc1nccc2c1[nH]c1cc(O)ccc12` yielded a half-maximal inhibitory concentration (IC50) at Acetylcholinesterase [3] of 8.02 µM. Turning to `COc1ccc2c3c([nH]c2c1)C(C)=NCC3` [HARMALINE], the values for the IC50 against Acetylcholinesterase [3] and at Acetylcholinesterase [4] were 4.9 µM and 23.7 µM, respectively. Turning to `O=C(O)c1ccc2cc[nH]c2c1`, in test [2], the inhibition worked out at 28.5%.

At Acetylcholinesterase [3], `c1ccc2c3c([nH]c2c1)CNCC3` [TRYPTOLINE] yielded an IC50 of 97.1 µM. Molecule `COc1ccc2c(c1)[nH]c1c(C)nccc12` [HARMINE] displayed an IC50 on Acetylcholinesterase [3] of 22.9 µM. This IC50 is about 4.2-fold lower than that of the molecule before.

Molecule `Cc1nccc2c1[nH]c1ccccc12` [HARMAN] gave an IC50 against Acetylcholinesterase [3] of 20.9 µM. At Acetylcholinesterase [3], `CC1=NCCc2c1[nH]c1cc(O)ccc21` [HARMALOL] yielded a concentration for half-maximal inhibition (IC50) of 11.3 µM. This IC50 lies about 1.8-fold lower than the previous one. Molecule `COc1ccc2[nH]c3c(c2c1)CCNC3` returned an IC50 against Acetylcholinesterase [3] of 227 µM. `O=C(O)c1cccc2[nH]ccc12` showed an inhibition in test [2] of 36.8%. At Acetylcholinesterase [1], `CC[C@H]1C[C@@H]2C[C@H]3c4[nH]c5cc([C@@H]6C[C@H]7C(C(=O)OC)[C@@H](Cc8c6[nH]c6ccccc86)N(C)C[C@H]7CC)ccc5c4CCN(C2)[C@@H]13` (stereo partly drawn) yielded a half-inhibitory concentration (IC50) of 0.227 µM. This counts as sub-micromolar.

With `O=C(O)c1cccc2cc[nH]c12`, the inhibition in test [2] was determined as 23.4%.

With `COc1ccc2c(ccc[n+]2C)c1`, the values for the IC50 against Acetylcholinesterase [3] and on Acetylcholinesterase [4] were 7.67 µM and 49.7 µM, respectively.
